Laboratory results as given in patent US20210330611A1, “THERAPY FOR NEUROLOGICAL DISEASES/DISORDERS” (priority 2020, published 2021).
Counter-ions that a name gives are not always drawn. Like-named read-outs stand apart in the source and are kept apart here. Where a SMILES comes first, the peptide text is derived from it.

Columns and labels:
[1] = test system: primary rat microglia
[2] = test system: fibrin- and LPS-induced microglia activation; experiment: cells; assay type: cell-based, rat; details: quadrant by fibrin and LPS inhibition, HTS at 10 μM
[3] = test system: fibrin-induced microglia activation; experiment: Image-based assay of fibrin-induced microglia activation (HTS and dose response); assay type: cell-based, rat; details: primary microglia HTS, fibrin stimulation, compounds at 10 μM; for inhibition at 10 µM: Rattus norvegicus, Microglia, read-out: Fibrin % inhibition
[4] = test system: primary rat microglia; experiment: Cell toxicity (dead cells, size <150 μm2) in coated fibrin (cFib) assay; details: primary microglia HTS, fibrin assay, dead cells (size <150 μm2);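 also: share of dead cells sized under 150 µm2 at 10 µM in fibrin-stimulated microglia HTS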
[5] = test system: LPS-induced microglia activation; experiment: Image-based assay of LPS-induced microglia activation (HTS and dose response); assay type: cell-based, rat; details: primary microglia HTS, LPS stimulation, compounds at 10 μM; for inhibition at 10 µM: Rattus norvegicus, Microglia, read-out: LPS % inhibition

SMILES | LPS % cell toxicity ([1]; rat) | Quadrant (FIG. 5b) [2] | inhibition at 10 µM [3] | Fibrin % cell toxicity [4] | inhibition at 10 µM [5] | LPS % cell toxicity [1] | Fibrin % inhibition [3] | LPS % inhibition [5] | Fibrin % inhibition ([3]; 10 µM) | LPS % inhibition ([5]; 10 µM)
Nc1nccs1 [Aminothiazole] | 1% | Q4 | -31% | 1% | 17% |  |  |  |  | 
Cc1ccc(/N=C/N(C)/C=N/c2ccc(C)cc2C)c(C)c1 [Amitraz] | 0% | Q4 | -18% | 0% | 9% |  |  |  |  | 
CC(C)c1ccc2oc3nc(N)c(C(=O)O)cc3c(=O)c2c1 [Amlexanox] | 0% | Q4 | -17% | 0% | -4% |  |  |  |  | 
CCC(C)(C)c1ccc(CC(C)CN2C[C@@H](C)O[C@@H](C)C2)cc1 (some centres unmarked) [Amorolfine] | 0% | Q4 | 6% | 1% | 22% |  |  |  |  | 
CC1(C)S[C@@H]2[C@H](NC(=O)[C@H](N)c3ccccc3)C(=O)N2[C@H]1C(=O)O [Ampicillin] | 0% | Q4 | 1% | 1% | 15% |  |  |  |  | 
CCCc1ncc(C[n+]2ccccc2C)c(N)n1 [Amprolium] | 0% | Q4 | -10% | 1% | 8% |  |  |  |  | 
Nc1cc(-c2ccncc2)c[nH]c1=O [Amrinone, Inamrinone] |  | Q4 |  | 1% |  | 0% | 1% | 18% |  | 
COc1ccc(C2C(=O)c3ccccc3C2=O)cc1 [Anisindione] | 0% | Q4 | -15% | 0% | 13% |  |  |  |  | 
Br.CN1[C@H]2C[C@H](OC(=O)[C@H](CO)c3ccccc3)C[C@@H]1[C@@H](O)C2 [Anisodamine Hydrobromide] |  | Q4 |  | 1% |  | 0% | −41% | 4% |  | 
c1ccc(CN(CC2=NCCN2)c2ccccc2)cc1 [Antazoline] | 1% | Q4 | -2% | 1% | 17% |  |  |  |  | 
O=C1c2c(O)cccc2Cc2cccc(O)c21 [Anthralin] | 1% | Q4 | -10% | 1% | 13% |  |  |  |  | 
Cc1cc(=O)n(-c2ccccc2)n1C [Antipyrine] | 1% | Q4 | -8% | 0% | 13% |  |  |  |  | 
C[C@@H](O[C@H]1OCCN(Cc2n[nH]c(=O)[nH]2)[C@H]1c1ccc(F)cc1)c1cc(C(F)(F)F)cc(C(F)(F)F)c1 [Aprepitant] | 0% | Q4 | 20% | 1% | 1% |  |  |  |  | 
NC(=O)C[S@@+]([O-])C(c1ccccc1)c1ccccc1 [Armodafinil] | 1% | Q4 | -10% | 0% | 19% |  |  |  |  | 
Nc1ccc([As](=O)(O)O)cc1 [Arsanilic Acid] | 0% | Q4 |  | 0% |  |  | −42% | 12% |  | 
C[C@@H]1CC[C@H]2[C@@H](C)C(=O)O[C@@H]3O[C@@]4(C)CC[C@@H]1[C@]32OO4 [Artemisinin] | 0% | Q4 | -25% | 0% | 12% |  |  |  |  | 
C[C@H]1[C@@H](O)O[C@@H]2O[C@@]3(C)CC[C@H]4[C@H](C)CC[C@@H]1[C@@]24OO3 [Artenimol] | 0% | Q4 | -56% | 0% | 11% |  |  |  |  | 
COC(=O)[C@H](Cc1ccccc1)NC(=O)[C@@H](N)CC(=O)O [Aspartame] (H-Asp-Phe-OMe) | 0% | Q4 | -15% | 1% | 7% |  |  |  |  | 
COC(=O)N[C@H](C(=O)N[C@@H](Cc1ccccc1)[C@@H](O)CN(Cc1ccc(-c2ccccn2)cc1)NC(=O)[C@@H](NC(=O)OC)C(C)(C)C)C(C)(C)C [Atazanavir] | 1% | Q4 | -17% | 0% | 13% |  |  |  |  | 
O=C1C(O)=C([C@H]2CC[C@H](c3ccc(Cl)cc3)CC2)C(=O)c2ccccc21 [Atovaquone] | 0% | Q4 | -15% | 0% | 13% |  |  |  |  | 
COc1ccc(C(=O)CC(=O)c2ccc(C(C)(C)C)cc2)cc1 [Avobenzone] | 0% | Q4 | 22% | 1% | 20% |  |  |  |  | 
[N-]=[N+]=CC(=O)OC[C@H](N)C(=O)O [Azaserine] | 0% | Q4 | 8% | 1% | 2% |  |  |  |  | 
CN1CCC(=C2c3ccccc3CCc3cccnc32)CC1 [Azatadine] | 0% | Q4 | -9% | 1% | 7% |  |  |  |  | 
O=C(O)CCCCCCCC(=O)O [Azelaic Acid] | 0% | Q4 | 6% | 0% | 19% |  |  |  |  | 
CN1CCCC(n2nc(Cc3ccc(Cl)cc3)c3ccccc3c2=O)CC1 (centres unmarked) [Azelastine, Azelastine Hydrochloride] |  | Q4 |  | 0% |  | 0% | 5% | 11% |  | 
CCOc1nc2cccc(C(=O)OCc3oc(=O)oc3C)c2n1Cc1ccc(-c2ccccc2-c2noc(=O)[nH]2)cc1 [Azilsartan medoxomil] | 1% | Q4 | 5% | 0% | 31% |  |  |  |  | 
CC1(C)S[C@@H]2[C@H](NC(=O)[C@H](NC(=O)N3CCNC3=O)c3ccccc3)C(=O)N2[C@H]1C(=O)O [Azlocillin Sodium] | 0% | Q4 |  | 0% |  |  |  |  | −5% | 17%
CC1(C)S[C@@H]2[C@H](NC(=O)[C@H](NC(=O)N3CCNC3=O)c3ccccc3)C(=O)N2[C@H]1C(=O)O [Azlocillin] | 1% | Q4 |  | 1% |  |  |  |  | −14% | 6%
